# Where two headings read alike, the source gives them in different places.
# Assays:
# [1] = system: serum cholesterol; assay: Testing of Normal Mice: serum cholesterol (modified Liebermann-Burchard), Example 7; assay type: in vivo, CF1 male mice; conditions: Mus musculus, 20 mg/kg/day ip
# Procedure: Suspensions of Compounds Nos. 1-9 were prepared wherein the compounds were suspended in an aqueous 1% carboxymethylcelluose solution, homogenized and administered to CF1 male mice, each weighing approximately 25 grams, intraperitoneally on a daily basis for 16 days. The dosage was, with the exception of one compound, 20 milligrams of the active compound per kilogram of mouse weight per day. On days 9 and 16 blood was obtained by tail vein bleeding. The blood serum was separated by centrifugation for three minutes. Serum cholesterol levels were determined by a modification of the Liebermann-Burchard reaction. Serum was also collected on day 16 and the triglycerides content was determined by a commercial kit, BioDynamics/bnc Single Vile Colorimetric Method 348201. Each compound was tested on a group of six mice.
# In addition to the above-described treated mice, untreated control groups of six mice were similarly tested on days 9 and 14 or 16 to determine their serum cholesterol and triglycerides blood levels. Table 5 reports the percent control, based on the serum cholesterol and serum triglyceride levels of the treated mice compared to the untreated controls. Table 5 also includes the standard deviation indicating the level of confidence of these numbers.
# Example 7 was repeated substituting clofibrate, a compound used in the prior art to lower serum cholesterol and serum triglyceride levels. The clofibrate was administered as a suspension in an aqueous 1% solution of carboxymethylcellulose. However, unlike the compounds of the present invention which were administered at a dosage of 20 mg/kg day, ip, this compound was administered at the elevated concentration of 150 mg/kg day, ip.
# [2] = system: ^3 H-cholesterol; assay: Effect on 3H Cholesterol Distribution in Rats, Example 12; assay type: in vivo, Sprague Dawley rats; conditions: oral 20 mg/kg/day
# Procedure: A group of 6 Sprague Dawley rats, each weighing approximately 300 g, were treated with 3,4,5,6-dibenzohomopiperdine applied orally at a dosage of 20 mg/kg per day for 4 days. Six similar Sprague Dawley rats were untreated and served as a control. On the 13th day, 10 μCi of ^3 H-cholesterol was administered orally. The rats were sacrificed and tissue samples were combusted or plated on filter paper, dried and digested for 24 hours in hyamine hydroxide at 40° C. and counted. Results of this test are reported as disintegrations per minute (DPM) per total organ.
# In Table 10, the average organ weight and feces of the treated and untreated rats are reported. The table indicates the concentration of ^3 H-cholesterol in the organs and feces of the treated and untreated (control) rats.
# [3] = target: T1, Acyl CoA Cholesterol Acyl (Mus musculus, UniProt O88908); assay: In vitro enzyme activity, liver homogenate: acyl CoA cholesterol acyl transferase; assay type: biochemical, CF1 male mouse; conditions: ± SD, N = 6, read-out: Percent Control, in vitro enzyme activity
# T1 construct: 10% homogenates of CF1 male mouse liver; from tissue; host or cells: CF1 male mouse liver, 10% homogenate
# T1 sequence (O88908 1-525): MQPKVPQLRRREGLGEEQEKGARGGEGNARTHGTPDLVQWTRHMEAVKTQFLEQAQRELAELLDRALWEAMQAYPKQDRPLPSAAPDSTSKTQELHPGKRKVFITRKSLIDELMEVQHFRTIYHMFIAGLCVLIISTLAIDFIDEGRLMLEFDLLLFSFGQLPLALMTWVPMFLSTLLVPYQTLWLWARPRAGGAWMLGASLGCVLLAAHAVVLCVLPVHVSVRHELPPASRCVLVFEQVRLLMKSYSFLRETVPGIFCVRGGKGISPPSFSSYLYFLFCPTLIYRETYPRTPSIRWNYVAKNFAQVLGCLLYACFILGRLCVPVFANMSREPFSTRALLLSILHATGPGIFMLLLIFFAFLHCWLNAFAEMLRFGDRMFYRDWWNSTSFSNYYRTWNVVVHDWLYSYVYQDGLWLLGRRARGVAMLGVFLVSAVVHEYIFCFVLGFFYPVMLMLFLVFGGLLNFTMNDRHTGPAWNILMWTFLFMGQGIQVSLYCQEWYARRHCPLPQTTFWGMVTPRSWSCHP
# Procedure: In vitro enzymatic studies were undertaken using 10% homogenates of CF1 male mouse liver with […] of compound 3,4,5,6-dibenzohomopiperidine. In addition, in vivo enzymatic studies were performed, again using 10% liver homogenates (prepared in 0.25 M sucrose plus 0.001 M (ethylenedinitrilo)-tetraacetic acid, ph 7.25 from CF1 male mice obtained after administering 3,4,5,6-dibenzohomopiperidine for 16 days at a concentration ranging from 10 to 60 mg/kg/day, intraperitoneally.
# The following enzyme activities were determined by following standard literature procedures: acetyl coenzyme synthetase; adenosine triphosphate dependent citrate lyase; mitochondrial citrate exchange; cholesterol/7 hydroxylase; 3-hydroxy-3-methyl-glutaryl coenzyme A reductase; acetyl coenzyme A carboxylase activity; fatty acid synthetase activity; sn-glycerol-3-phosphate acyl transferase activity; phosphatidate phosphohydrolase activity; cholesterol acyl transferase; and heparin activated hepatic lypoprotein lipase. Protein was determined for all enzyme assays by the Lowry et al. technique (J. Biol. Chem, 193, 265 (1951)).
compound,measurement,setting,value
"c1ccc2c(c1)CNCc1ccccc1-2 [Compound 3, 3,4,5,6-dibenzohomopiperidine]",response vs control in vivo at 20 mg/kg,"[1]; 216 h, day 9, ± SD, read-out: Serum Cholesterol Control, % Day 9",68 ± 4%
same,response vs control in vivo at 20 mg/kg,"[1]; 384 h, day 16, ± SD, read-out: Serum Cholesterol Control, % Day 16",48 ± 4%
same,"3H-cholesterol, Treated % Recovery",[2]; brain,0.162%
same,"3H-cholesterol, Treated DPM per total organ",[2]; brain,"9,216 DPM"
same,"3H-cholesterol, Treated % Recovery",[2]; chyme,11.739%
same,"3H-cholesterol, Treated DPM",[2]; chyme,"667,840 DPM"
same,"3H-cholesterol, Treated % Recovery",[2]; feces,14.462%
same,"3H-cholesterol, Treated DPM",[2]; feces,"822,719 DPM"
same,"3H-cholesterol, Treated % Recovery",[2]; heart,0.452%
same,"3H-cholesterol, Treated DPM per total organ",[2]; heart,"25,692 DPM"
same,"3H-cholesterol, Treated % Recovery",[2]; kidney,0.652%
same,"3H-cholesterol, Treated DPM per total organ",[2]; kidney,"37,096 DPM"
same,"3H-cholesterol, Treated % Recovery",[2]; large intestine,3.757%
same,"3H-cholesterol, Treated DPM per total organ",[2]; large intestine,"213,777 DPM"
same,"3H-cholesterol, Treated % Recovery",[2]; liver,23.615%
same,"3H-cholesterol, Treated DPM per total organ",[2]; liver,"1,343,450 DPM"
same,"3H-cholesterol, Treated % Recovery",[2]; lung,2.183%
same,"3H-cholesterol, Treated DPM per total organ",[2]; lung,"124,180 DPM"
same,"3H-cholesterol, Treated DPM",[2]; plasma,"26,018 DPM"
same,"3H-cholesterol, Treated % Recovery",[2]; small intestine,38.525%
same,"3H-cholesterol, Treated DPM per total organ",[2]; small intestine,"2,191,623 DPM"
same,"3H-cholesterol, Treated % Recovery",[2]; spleen,1.806%
same,"3H-cholesterol, Treated DPM per total organ",[2]; spleen,"102,723 DPM"
same,"3H-cholesterol, Treated % Recovery",[2]; stomach,2.189%
same,"3H-cholesterol, Treated DPM per total organ",[2]; stomach,"124,552 DPM"
same,remaining activity at 50 µM,[3]; 50 μM,60 ± 6%
same,remaining activity at 100 µM,[3]; 100 μM,59 ± 5%
same,remaining activity at 200 µM,[3]; 200 μM,3 ± 1%

# — US4689326A, “Process for controlling hyperlipidemia” (Research Corporation, priority 1985, dated 1987)
